# Laboratory results as given in article PMC6222422, “Synthesis and Biological Evaluation of Novel Indole-Derived Thioureas” (Molecules : A Journal of Synthetic Chemistry and Natural …, 2018).
# Columns and labels:
# BVDV = test: microbe, parasite or virus in culture; assay type: cell-based, bovine viral diarrhoea virus; settings: for EC50: Bovine viral diarrhea virus isolates and strains, MDBK, in Bos taurus, read-out: BVDV EC50
# YFV = test: microbe, parasite or virus in culture; assay type: cell-based; settings: Yellow fever virus, BHK, read-out: YFV EC50
# CV-B5 = test: microbe, parasite or virus in culture; assay type: cell-based, coxsackievirus B5; settings: Enterovirus B, CVB5, Vero 76, read-out: CV-B5 EC50
# Sb-1 = test: microbe, parasite or virus in culture; assay type: cell-based, poliovirus type-1; settings: Enterovirus C, Vero 76, read-out: Sb-1 EC50
# Reo-1 = test: microbe, parasite or virus in culture; assay type: cell-based, reovirus type-1; settings: Reovirus sp., BHK, read-out: Reo-1 EC50
# RSV = test: microbe, parasite or virus in culture; assay type: cell-based, human respiratory syncytial virus; settings: human respiratory syncytial virus, Vero 76, read-out: RSV EC50
# VSV = test: microbe, parasite or virus in culture; assay type: cell-based; settings: Vesicular stomatitis virus, Vero 76, read-out: VSV EC50
# VV = test: microbe, parasite or virus in culture; assay type: cell-based; settings: Orthopoxvirus vaccinia, Vero 76, read-out: VV EC50
# HSV-1 = test: microbe, parasite or virus in culture; assay type: cell-based, human herpes 1; settings: Human alphaherpesvirus 1, Vero 76, read-out: HSV-1 EC50
# in vitro [1] = settings: human
# in vitro [2] = settings: cattle (Bos taurus)
# in vitro [3] = settings: Syrian hamster (Mesocricetus auratus)
# in vitro [4] = settings: African green monkey (Cercopithecus aethiops)
# HIV-1 = test: microbe, parasite or virus in culture; settings: Human immunodeficiency virus 1, MT4, read-out: HIV-1 EC50
compound,measurement,setting,value
"Fc1cccc(NC(=S)NCCc2c[nH]c3ccccc23)c1 [Compound 12, 1-(2-(1H-Indol-3-yl)ethyl)-3-(3-fluorophenyl)thiourea]",EC50,BVDV,> 49 µM
same,EC50,YFV,> 16 µM
same,EC50,CV-B5,> 60 µM
same,EC50,Sb-1,> 60 µM
same,EC50,Reo-1,> 16 µM
same,EC50,RSV,> 60 µM
same,EC50,VSV,> 60 µM
same,EC50,VV,> 60 µM
same,EC50,HSV-1,> 60 µM
same,melting point,,162 to 164 °C
same,CC50,in vitro [1],47 µM
same,CC50,in vitro [2],49 µM
same,CC50,in vitro [3],16 µM
same,CC50,in vitro [4],60 µM
same,EC50,HIV-1,> 47 µM
"S=C(NCCc1c[nH]c2ccccc12)Nc1ccccc1Cl [Compound 13, 1-(2-(1H-Indol-3-yl)ethyl)-3-(2-chlorophenyl)thiourea]",EC50,BVDV,> 49 µM
same,EC50,YFV,> 11 µM
same,EC50,CV-B5,12 ± 0.9 µM
same,EC50,Sb-1,> 53 µM
same,EC50,Reo-1,> 11 µM
same,EC50,RSV,> 53 µM
same,EC50,VSV,> 53 µM
same,EC50,VV,> 53 µM
same,EC50,HSV-1,> 53 µM
same,melting point,,170 to 172 °C
same,CC50,in vitro [1],47 µM
same,CC50,in vitro [2],49 µM
same,CC50,in vitro [3],11 µM
same,CC50,in vitro [4],53 µM
same,EC50,HIV-1,> 47 µM
"Fc1ccc(NC(=S)NCCc2c[nH]c3ccccc23)cc1 [Compound 17, 1-(2-(1H-Indol-3-yl)ethyl)-3-(4-fluorophenyl)thiourea]",EC50,BVDV,> 53 µM
same,EC50,YFV,> 30 µM
same,EC50,CV-B5,> 53 µM
same,EC50,Sb-1,> 53 µM
same,EC50,Reo-1,> 30 µM
same,EC50,RSV,> 53 µM
same,EC50,VSV,> 53 µM
same,EC50,VV,> 53 µM
same,EC50,HSV-1,> 53 µM
same,CC50,in vitro [1],44 µM
same,CC50,in vitro [2],53 µM
same,CC50,in vitro [3],30 µM
same,CC50,in vitro [4],53 µM
same,EC50,HIV-1,> 44 µM
"Cc1ccc(NC(=S)NCCc2c[nH]c3ccccc23)cc1Cl [Compound 23, 1-(2-(1H-Indol-3-yl)ethyl)-3-(3-chloro-4-methylphenyl)thiourea]",EC50,BVDV,> 25 µM
same,EC50,YFV,> 10 µM
same,EC50,CV-B5,> 17 µM
same,EC50,Sb-1,> 17 µM
same,EC50,Reo-1,> 10 µM
same,EC50,RSV,> 17 µM
same,EC50,VSV,> 17 µM
same,EC50,VV,> 17 µM
same,EC50,HSV-1,> 17 µM
same,melting point,,161 to 163 °C
same,CC50,in vitro [1],44 µM
same,CC50,in vitro [2],25 µM
same,CC50,in vitro [3],10 µM
same,CC50,in vitro [4],17 µM
same,EC50,HIV-1,> 44 µM
"FC(F)(F)c1cccc(NC(=S)NCCc2c[nH]c3ccccc23)c1 [Compound 24, 1-(2-(1H-Indol-3-yl)ethyl)-3-(3-(trifluoromethyl)phenyl)thiourea]",EC50,BVDV,> 23 µM
same,EC50,YFV,> 9 µM
same,EC50,CV-B5,> 16 µM
same,EC50,Sb-1,> 16 µM
same,EC50,Reo-1,> 9 µM
same,EC50,RSV,> 16 µM
same,EC50,VSV,> 16 µM
same,EC50,VV,> 16 µM
same,EC50,HSV-1,> 16 µM
same,melting point,,169 to 171 °C
same,CC50,in vitro [1],44 µM
same,CC50,in vitro [2],23 µM
same,CC50,in vitro [3],9 µM
same,CC50,in vitro [4],16 µM
same,EC50,HIV-1,> 44 µM
"Cc1ccc(Cl)cc1NC(=S)NCCc1c[nH]c2ccccc12 [Compound 26, 1-(2-(1H-Indol-3-yl)ethyl)-3-(3-chloro-6-methylphenyl)thiourea]",activity against BVDV (in words),BVDV,showed activity
same,EC50,BVDV,15 ± 1.2 µM
same,EC50,YFV,> 12 µM
same,EC50,CV-B5,> 17 µM
same,EC50,Sb-1,> 17 µM
same,EC50,Reo-1,> 12 µM
same,EC50,RSV,> 17 µM
same,EC50,VSV,> 17 µM
same,EC50,VV,> 17 µM
same,EC50,HSV-1,> 17 µM
same,melting point,,163 to 165 °C
same,CC50,in vitro [1],45 µM
same,CC50,in vitro [2],42 µM
same,CC50,in vitro [3],12 µM
same,CC50,in vitro [4],17 µM
same,EC50,HIV-1,> 45 µM
"CCCCc1ccc(NC(=S)NCCc2c[nH]c3ccccc23)c(C)c1 [Compound 27, 1-(2-(1H-Indol-3-yl)ethyl)-3-(4-butyl-2-methylphenyl)thiourea]",EC50,BVDV,> 11 µM
same,EC50,YFV,> 9.5 µM
same,EC50,CV-B5,> 12 µM
same,EC50,Sb-1,> 12 µM
same,EC50,Reo-1,> 9.5 µM
same,EC50,RSV,> 12 µM
same,EC50,VSV,> 12 µM
same,EC50,VV,> 12 µM
same,EC50,HSV-1,> 12 µM
same,melting point,,172 to 174 °C
same,CC50,in vitro [1],45 µM
same,CC50,in vitro [2],11 µM
same,CC50,in vitro [3],9.5 µM
same,CC50,in vitro [4],12 µM
same,EC50,HIV-1,> 45 µM
"Fc1ccc(NC(=S)NCCc2c[nH]c3ccccc23)cc1Cl [Compound 28, 1-(2-(1H-Indol-3-yl)ethyl)-3-(3-chloro-4-fluorophenyl)thiourea]",activity against BVDV (in words),BVDV,showed activity
same,EC50,BVDV,13 ± 1.2 µM
same,EC50,YFV,> 30 µM
same,EC50,CV-B5,20 ± 2.1 µM
same,EC50,Sb-1,> 32 µM
same,EC50,Reo-1,> 30 µM
same,EC50,RSV,> 32 µM
same,EC50,VSV,> 32 µM
same,EC50,VV,> 32 µM
same,EC50,HSV-1,> 32 µM
same,melting point,,162 to 164 °C
same,CC50,in vitro [1],45 µM
same,CC50,in vitro [2],37 µM
same,CC50,in vitro [3],30 µM
same,CC50,in vitro [4],32 µM
same,EC50,HIV-1,> 45 µM
"COc1c(C)c2c(c(O)c1C/C=C(\C)CCC(=O)O)C(=O)OC2 [Mycophenolic acid, mycophenolic acid, reference compound]",EC50,VV,1.5 ± 0.2 µM
same,CC50,in vitro [4],13 µM
